Like-named read-outs stand apart in the source and are kept apart here.

Experiment [1] concerns Mouse hair-follicle cells. In words: Hair growth promoting effect in mouse hair-follicle cell culture (Neutral Red). It is filed as cell-based. The following applies: for Relative Degree of Cell Growth, vehicled on the degree of cell growth of 100 in Control: 5 days. As to the method:
Mouse hair-follicle cells were cultivated and collected, according to the modified method of the Tanigai et al's method (see Archives of Dermatological Research, 284, 290–296, 1992) while suitably modifying the method.
That is, the skin was peeled from the back of a 4-day age C3H mouse (bought from Nippon Charles River Co.), and processed with an MEM (Minimum Essential Medium, Eagle) containing 500 units/ml Disperse (produced by Godo Shusei Co.) and 5% FCS, at 4° C. for 16 hours.
The epidermis was removed from said skin sample, and the resulting dermis layer was processed with a DMEM (Dulbecco's Modified Eagle Medium) containing 0.25% collagenase N-2 (produced by Nitta Gelatin Co.) and 10% FCS, at 37° C. for 1 hours, to prepare a dermis suspension.
This dermis suspension was filtrated through a 212-micron nylon mesh (produced by Nippon Rikagaku Kikai KK), and the resulting filtrate was centrifuged at 1,000 rpm for 5 minutes to obtain hair-follicle tissue-containing pellets.
The resulting pellets were suspended in a Ca-Mg-free PBS (Dulbecco's Phosphate-Buffered Saline), using a pipette, and then statically left as it was for 15 minutes, whereby the hair-follicle tissue was precipitated.
The thus-obtained hair-follicle tissue was repeatedly processed for a total of three times according to the same process as above comprising the addition of a Ca-Mg-free PBS, the suspension with a pipette, and the precipitation for 15 minutes.
The hair-follicle tissue thus obtained finally was processed with 0.1% EDTA-0.25% trypsin (produced by Gibco Co.) at 37° C. for 5 minutes, to which was then added a DMEM containing 10% FCS. Thus was prepared herein a hair-follicle tissue cell suspension comprising 3×10^5 cells/ml.
This hair-follicle tissue cell suspension was pipetted into a 24-well collagen-coated plate (produced by Iwaki Glass Co.) in an amount of 1 ml/well, and cultivated at 37° C. in 5% CO2 for 24 hours.
The resulting culture was then subjected to medium exchange with an MCDB153 medium (produced by Kyokuto Pharmaceutical Co.) containing 5 mg/liter insulin from bovine (produced by Sigma Co.), 5 μg/liter mouse EGF (produced by Takara Shuzo Co.), 40 mg/liter bovine pituitary extract (produced by Kyokuto Pharmaceutical Co.), 10 mg/liter human transferrin (produced by Sigma Co.), 0.4 mg/liter hydrocortisone (produced by Sigma Co.), 0.63 μg/liter progesterone (produced by Collaborative Research Co.), 14 mg/liter O-phosphoethanolamine (produced by Sigma Co.), 6.1 mg/liter ethanolamine (produced by Sigma Co.), 50 U/ml penicillin (produced by Wako Co.), 50 μg/ml streptomycin (produced by Wako Co.), and an DMSO solution comprising a PKC inhibitor of the invention (this was added in an amount of 1/100 by volume relative to the medium), and then further cultivated at 37° C. in 5% CO2 for 5 days. During the incubation, the medium was exchanged with a fresh one every other day.
As the control, the cell culture was cultivated in the same manner as above, except that only DMSO of 1/100 by volume relative to the medium was added to the medium in place of the PKC inhibitor-containing DMSO solution.
To determine the degree of cell growth, referred to herein was a known method of using Neutral Red (see Journal of Tissue Culture Method, 9, 1, 7–9, 1984). […]
The absorbance of the extract at 540 nm was measured, from which was obtained the degree of growth of the cells.

Experiment [2] concerns protein kinase C (PKC). In words: PKC-inhibiting activity measuring method (Kikkawa et al.). It is filed as biochemical, rat. The following applies: ratio, selectivity PKC over PKA.
Procedure: (§1) (1) Method for Measuring PKC-inhibiting Activity
(§2) Precisely, 10 μl of a sample to be tested for determining its activity is added to 250 μl of a solution comprising 2.5 μmols of magnesium acetate, 50 μg of histone Type IIIS (produced by Sigma Co.), 20 μg of phosphatidylserine, 0.8 μg of diolein, 25 μmols of calcium chloride, 5 μg of a crude enzyme (as partially purified from a rat brain according to the Kikkawa et al's method) and 5 μmols of Tris-HCl buffer (pH 7.5), and incubated therein at 30° C. for 3 minutes.
The target of experiment [3] is T1, protein kinase C (PKC).
T1 construct: PKC-IC50; other: crude enzyme partially purified from rat brain
The description is as above. The following applies: crude enzyme partially purified from rat brain. It is filed as biochemical, rat.
Procedure: as §1, §2

For experiment [4], the target named is protein kinase A (PKA) (Bos taurus, UniProt P00517). The experiment in a line: PKA-inhibiting activity measuring method (Kuo et al.). To be noted: crude enzyme partially purified from calf heart. It is filed as biochemical. The protocol: (2) Method for Measuring PKA-inhibiting Activity
To measure the PKA-inhibiting activity of a protein kinase inhibitor, referred to is the Kuo et al's method (see Biochemistry, 64, 1349, 1969).
Precisely, 10 μl of a sample to be tested for determining its activity is added to 250 μl of a solution comprising 5 μmols of Tris-HCl buffer (pH 6.8), 2.5 μmols of magnesium acetate, 100 μg of histone Type IIS (produced by Sigma Co.), 0.25 nmols of c-AMP and 200 μg of a crude enzyme (as partially purified from a calf heart according to the Kuo et al's method), and incubated therein at 30° C. for 3 minutes.
After the completion of the incubation, 1.25 nmols of [g-^32P]ATP (from 5×10^3 to 10×10^3 cpm/nmol) is added to the system, and phosphorylation reaction is carried out at 30° C. for 3 minutes, and thereafter the reaction is terminated by adding 25% trichloroacetic acid thereto.
The resulting reaction mixture is filtrated through a cellulose acetate membrane (pore size: 0.45 μm) (produced by Toyo Filter Co.), and the membrane is washed four times with 5% trichloroacetic acid, and thereafter the radioactivity of the residue remained on the membrane is measured to be a value of the sample.
On the other hand, the same process as described above is repeated without adding the sample to the system, and the radioactivity is obtained to be a control value.

The test system of experiment [5] is hair-follicle organ culture. To be noted: British Journal of Dermatology, 133, 5, 686–693, 1995; cited from earlier work.
Experiment [6] addresses protein kinase C (PKC). To be noted: Excerpt from BIO/TECHNOLOGY, 8, 732, 1990, cited from earlier work.
For experiment [7], the target named is protein kinase A (PKA). The following applies: Excerpt from BIO/TECHNOLOGY, 8, 732, 1990; cited from earlier work.

On to `CN[C@@H]1C[C@H]2O[C@@](C)([C@@H]1OC)n1c3ccccc3c3c4c(c5c6ccccc6n2c5c31)C(=O)NC4` [Staurosporine], for which the “effect on growth of mouse hair-follicle cells (in words)” value in experiment [1] is on record as “inhibited the growth of mouse hair-follicle cells”.
A word on the IC50: it is the concentration at which inhibition is half-maximal. With calphostin C, in experiment [2], the PKA-IC50/PKC-IC50 is on record as above 1000. For the same molecule, the concentration for half-maximal inhibition (IC50) in experiment [3] is 0.05 µM; in experiment [4] it was above 50 µM. The “Relative Degree of Cell Growth, vehicled on the degree of cell growth of 100 in Control” value (shortened to “Relative Degree of Cell Growth, vehicled”) in experiment [1] (Concentration 0.1 μM) is 160.
As for `CC1CNCCN1S(=O)(=O)c1cccc2cnccc12` (stereo not shown) [Composition H-7, 1-(5-Isoquinolinylsulfonyl)-2-methylpiperazine], in experiment [5], the “effect on hair growth retardation by 12-O-tetragalloyl-phorbol-13-acetate (in words)” value is recorded as “release the hair growth-retarding activity”. The IC50 was 15 µM in experiment [6] and 13 µM in experiment [7]. Further, in experiment [6] (ratio), the PKA-IC50/PKC-IC50 is reported as 0.87.
For polymyxin B sulfate, in experiment [2], the PKA-IC50/PKC-IC50 is given as above 10. The half-maximal inhibitory concentration (IC50) in experiment [3] is 10 µM; in experiment [4], above 100 µM. In addition, the “Relative Degree of Cell Growth, vehicled” value in experiment [1] (Concentration 10 μM) was 360.
For `CCCCCCCCCCCCCCCC(=O)OC(CC(=O)O)C[N+](C)(C)C.[Cl-]` (racemic) [Palmitoyl-DL-carnitine Hydrochloride, palmitoyl-DL-carnitine hydrochloride], in experiment [2], the PKA-IC50/PKC-IC50 is reported as above 3. The 50% inhibitory concentration (IC50) in experiment [3] was 100 µM; in experiment [4], above 300 µM. The “Relative Degree of Cell Growth, vehicled” value in experiment [1] (Concentration 10 μM) is on record as 170.
With `COC(=O)[C@@]1(O)C[C@H]2O[C@]1(C)n1c3ccccc3c3c4c(c5c6ccccc6n2c5c31)C(=O)NC4` [Composition K252a], in experiment [7], the IC50 is 0.02 µM. In experiment [1], the “effect on growth of mouse hair-follicle cells (in words)” value is “inhibited the growth of mouse hair-follicle cells”.

These data come from patent publication US7033580B2, “Hair-growing agent” (priority 1996, dated 2006).
